Results published in patent US20100190768A1, “NOVEL FUSED PYROLE DERIVATIVE” (Dainippon Sumitomo Pharma Co., Ltd., priority 2005, published 2010).

Legend:
H4-III-E cells = experiment: TAT (tyrosine aminotransferase) assay; format: cell-based; settings: for Antagonistic activity of 10 μM test compound: 10 μM test compound together with 0.005 μM dexamethasone, inhibitory ratio against TAT activity increase by Dex
Outline: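 Rat hepatoma H4-III-E cells were treated overnight with compound, either alone for agonism or together with 0.005 μM dexamethasone for antagonism. TAT activity in lysates was read at 331 nm after reaction at 37 °C. Activity was expressed as % of the dexamethasone response, or as % inhibition of the dexamethasone-induced increase, and scored at a 10% cutoff.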

human GRα protein = target: T1, human GRα protein (Homo sapiens, UniProt P04150); experiment: Binding inhibitory assay (displacement of 3H-dexamethasone from the cytoplasm fraction of baculovirus-infected insect cells); settings: 100 nM test compound; 3H-Dex; NSB with 10 μM dexamethasone; read-out: Binding Inhibitory ratio (%) of 100 nM of test compound
T1 construct: made in house; host or cells: insect cells infected with baculovirus; cytoplasm fraction used
T1 sequence (P04150 1-777): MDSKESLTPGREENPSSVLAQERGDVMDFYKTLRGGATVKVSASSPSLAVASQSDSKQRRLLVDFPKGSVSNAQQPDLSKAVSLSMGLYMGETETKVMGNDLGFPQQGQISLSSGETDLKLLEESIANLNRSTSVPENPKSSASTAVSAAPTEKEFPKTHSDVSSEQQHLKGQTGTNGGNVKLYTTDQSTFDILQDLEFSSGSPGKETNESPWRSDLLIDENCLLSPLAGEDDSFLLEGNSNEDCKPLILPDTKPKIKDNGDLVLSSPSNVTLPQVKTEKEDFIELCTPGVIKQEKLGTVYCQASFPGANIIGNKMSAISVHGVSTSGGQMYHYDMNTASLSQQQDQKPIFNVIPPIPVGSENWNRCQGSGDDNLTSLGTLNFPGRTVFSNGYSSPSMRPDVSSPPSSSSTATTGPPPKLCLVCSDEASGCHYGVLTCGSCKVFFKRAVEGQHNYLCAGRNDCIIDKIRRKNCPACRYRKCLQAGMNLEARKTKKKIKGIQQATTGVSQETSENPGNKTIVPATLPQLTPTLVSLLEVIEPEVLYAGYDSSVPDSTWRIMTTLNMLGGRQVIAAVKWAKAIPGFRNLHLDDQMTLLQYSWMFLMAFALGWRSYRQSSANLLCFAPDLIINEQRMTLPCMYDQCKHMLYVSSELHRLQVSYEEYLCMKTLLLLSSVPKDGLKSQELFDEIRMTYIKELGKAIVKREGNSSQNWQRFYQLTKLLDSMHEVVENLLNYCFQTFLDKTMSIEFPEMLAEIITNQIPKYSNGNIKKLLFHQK
Outline: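 Cytosol from baculovirus-infected insect cells expressing human GRα incubated with compound and 10 nM ³H-dexamethasone solution in Tris/EDTA/glycerol/DTT/molybdate buffer, pH 7.6, 1% DMSO, 16–20 h at 4 °C. Free ligand removed with dextran-coated charcoal, supernatant counted; NSB from 10 μM dexamethasone, inhibition % vs DMSO, duplicates.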

[1] = 10 μM test compound alone, relative to maximum Dex-induced TAT activity (100%)

Structure (SMILES)	Agonistic activity of 10 μM test compound (H4-III-E cells; [1])	Antagonistic activity of 10 μM test compound (H4-III-E cells)	inhibition at 0.1 µM (human GRα protein) [%]	activation at 10 µM (H4-III-E cells; 10 μM test compound alone, relative to maximum Dex-induced TAT activity (100%), read-out: Agonistic activity of 10 μM test compound) [%]
CN1CCCN(C(=O)c2ccc(OC3CCN(CC(O)(c4cn(Cc5ccccc5)c5cc([N+](=O)[O-])ccc45)C(F)(F)F)CC3)cc2)CC1 (stereo not drawn) [Example 203, 2-(1-Benzyl-6-nitro-1H-indol-3-yl)-1,1,1-trifluoro-3-(4-{4-[(4-methyl-1,4-diazepan-1-yl)carbonyl]phenoxy}piperidin-1-yl)propan-2-ol]	◯	◯	94	–
COc1ccc(Cn2cc(C(O)(CN3CCC(Oc4ccc(CC(=O)O)cc4OC)CC3)C(F)(F)F)c3ccc(C#N)cc32)cc1 (stereo not drawn) [Example 226, {4-[(1-{2-[6-Cyano-1-(4-methoxybenzyl)-1H-indol-3-yl]-3,3,3-trifluoro-2-hydroxypropyl}piperidin-4-yl)oxy]-3-methoxyphenyl}acetic acid]	◯	◯	96	–
COc1cc(CC(=O)O)ccc1OC1CCN(CC(O)(c2cn(Cc3ccncc3)c3cc(C#N)ccc23)C(F)(F)F)CC1 (stereo not drawn) [Example 235, {4-[(1-{2-[6-Cyano-1-(pyridin-4-ylmethyl)-1H-indol-3-yl]-3,3,3-trifluoro-2-hydroxypropyl}piperidin-4-yl)oxy]-3-methoxyphenyl}acetic acid]	–	◯	79	< 10
